Experimental data published in ChEMBL document CHEMBL1201862, “PubChem BioAssay data set” (2004).
Active and inactive are the calls of the source.

What was measured:
[1] = test system: Plasmodium falciparum; assay: Primary qHTS for delayed death inhibitors of the malarial parasite plastid, 48 hour incubation. [Related pubchem assays (depositor defined):AID488752, AID488774, AID504848, AID504850]; format: functional; conditions: read-out: Potency
[2] = test system: Plasmodium falciparum; assay: Primary qHTS for delayed death inhibitors of the malarial parasite plastid, 96 hour incubation. [Related pubchem assays (depositor defined):AID488745, AID488752, AID488774, AID504848, AID504850]; format: functional; conditions: read-out: Potency
[3] = molecular target: Peroxisome proliferator-activated receptor gamma/Nuclear receptor coactivator 3 (Homo sapiens, UniProt P37231); format: functional;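 further: agonist potency for raising coactivator recruitment to the receptor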
[4] = molecular target: Peroxisome proliferator-activated receptor gamma/Nuclear receptor coactivator 1 (Homo sapiens, UniProt P37231); format: functional;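 further: agonist potency as compounds enhance coactivator SRC-1 recruitment to PPARgamma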
[5] = molecular target: Peroxisome proliferator-activated receptor gamma/Nuclear receptor coactivator 2 (Homo sapiens, UniProt P37231); format: functional;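 further: agonist potency for raising coactivator recruitment to the receptor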
[6] = molecular target: Beta-2 adrenergic receptor (Homo sapiens, UniProt P07550); assay: ADRB2 activation measured by internalization – cell-based, FAP fluorogen, flow cytometry, cherry pick 1, dose response (AID 588763); format: functional
[7] = molecular target: T1, Protein RecA (Mycobacterium tuberculosis, UniProt P9WHJ3); assay: Fluorescence Cell-Free Homogeneous Dose Retest to Identify Inhibitors of RecA-Intein Splicing Activity. [Related pubchem assays (depositor defined):AID2097, AID2223, AID489010, AID492950]; format: functional
T1 sequence (P9WHJ3 whole entry): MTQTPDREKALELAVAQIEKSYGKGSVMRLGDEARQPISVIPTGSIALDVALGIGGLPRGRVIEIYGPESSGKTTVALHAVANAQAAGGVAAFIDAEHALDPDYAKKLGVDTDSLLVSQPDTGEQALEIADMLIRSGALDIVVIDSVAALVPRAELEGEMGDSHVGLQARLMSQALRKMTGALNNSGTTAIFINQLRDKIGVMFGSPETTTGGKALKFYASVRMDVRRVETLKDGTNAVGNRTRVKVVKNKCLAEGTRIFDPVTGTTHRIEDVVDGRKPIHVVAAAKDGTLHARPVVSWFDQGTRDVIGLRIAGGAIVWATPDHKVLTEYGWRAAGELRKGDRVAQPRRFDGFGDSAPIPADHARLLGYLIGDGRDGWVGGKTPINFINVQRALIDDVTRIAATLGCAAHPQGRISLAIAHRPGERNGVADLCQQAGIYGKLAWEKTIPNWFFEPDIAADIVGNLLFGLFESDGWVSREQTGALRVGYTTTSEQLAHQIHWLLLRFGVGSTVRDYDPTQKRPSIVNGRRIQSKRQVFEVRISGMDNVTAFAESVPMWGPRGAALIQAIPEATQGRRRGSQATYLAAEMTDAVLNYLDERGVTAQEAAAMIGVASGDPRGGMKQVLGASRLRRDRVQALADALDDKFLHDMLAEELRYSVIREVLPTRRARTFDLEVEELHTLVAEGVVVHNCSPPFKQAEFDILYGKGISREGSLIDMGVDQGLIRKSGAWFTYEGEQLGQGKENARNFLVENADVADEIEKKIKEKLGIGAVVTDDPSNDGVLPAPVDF

[8] = test system: INS1; assay: INS-1E survival protection against cytokine death – cell-based, luminescence, retest, dose response (AID 449756); format: functional; conditions: Rattus norvegicus;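 further: cell death triggered by IL-1 beta plus TNF-alpha plus IFN-gamma mixture; protective hits raise ATP signal compared with cytokine alone wells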
[9] = test system: BJ; assay: BJ-TERT fibroblast viability loss – cell-based, RAS-independent, luminescence, dose response (AID 1933); format: functional; conditions: Homo sapiens
[10] = DRD fibroblast viability loss – cell-based, non-viral oncogenic, luminescence, dose response (AID 1934); format: functional; conditions: Homo sapiens
[11] = test system: BJ; assay: cells; format: functional, cell-based; conditions: Homo sapiens
[12] = molecular target: Protein S100-A4 (Homo sapiens, UniProt P26447); assay: human S100A4 peptide interaction inhibition curves – biochemical, fluorescence polarization, cherry-picked hits, dose response (AID 687001); format: functional
[13] = test system: HeLa; assay: viability loss in HeLa cells – cell-based, 24 h, cherry-picked samples, cytotoxicity control, dose response (AID 504726); format: functional; conditions: Homo sapiens;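 further: potency for cytotoxicity as loss of luminescence signal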
[14] = molecular target: T2, Replicative DNA helicase DnaB (Mycobacterium tuberculosis, UniProt P9WMR3); assay: DnaB intein splicing inhibitors, dose response, biochemical, cell-free fluorescence (AID 449749); format: functional
T2 sequence (P9WMR3 whole entry): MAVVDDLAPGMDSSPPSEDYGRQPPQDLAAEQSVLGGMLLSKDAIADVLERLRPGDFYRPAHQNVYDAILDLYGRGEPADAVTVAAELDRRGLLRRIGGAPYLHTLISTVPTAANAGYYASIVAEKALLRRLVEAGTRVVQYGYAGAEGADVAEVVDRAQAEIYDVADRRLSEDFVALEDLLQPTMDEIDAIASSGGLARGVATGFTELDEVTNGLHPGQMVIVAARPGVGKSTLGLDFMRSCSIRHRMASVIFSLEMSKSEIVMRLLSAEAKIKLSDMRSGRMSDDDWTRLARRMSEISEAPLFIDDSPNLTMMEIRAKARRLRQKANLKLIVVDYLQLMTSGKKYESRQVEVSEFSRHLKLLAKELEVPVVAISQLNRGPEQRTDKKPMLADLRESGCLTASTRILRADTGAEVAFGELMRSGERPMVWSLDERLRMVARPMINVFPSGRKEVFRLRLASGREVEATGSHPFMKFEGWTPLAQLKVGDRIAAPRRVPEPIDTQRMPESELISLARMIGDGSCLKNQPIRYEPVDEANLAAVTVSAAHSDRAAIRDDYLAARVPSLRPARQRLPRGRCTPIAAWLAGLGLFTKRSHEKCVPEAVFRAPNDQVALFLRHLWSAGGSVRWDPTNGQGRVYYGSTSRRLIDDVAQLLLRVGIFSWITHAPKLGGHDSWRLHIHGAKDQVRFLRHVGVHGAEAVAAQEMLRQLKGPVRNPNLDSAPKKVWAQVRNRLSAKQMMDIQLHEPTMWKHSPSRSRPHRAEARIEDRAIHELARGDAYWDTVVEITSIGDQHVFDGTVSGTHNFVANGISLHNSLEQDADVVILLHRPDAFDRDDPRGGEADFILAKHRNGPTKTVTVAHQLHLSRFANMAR

[15] = molecular target: T3, ORF 73 (Human herpesvirus 8, UniProt O40947); assay: KSHV LANA DNA-binding disruption – biochemical, fluorescence polarization, cherry-picked samples, dose response (AID 504725); parameters: species or system Human gammaherpesvirus 8;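 further: fluorescence polarization of a labeled DNA duplex reporting LANA DNA binding; potency is for inhibitors that block LANA binding to the DNA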
T3 sequence (O40947 whole entry): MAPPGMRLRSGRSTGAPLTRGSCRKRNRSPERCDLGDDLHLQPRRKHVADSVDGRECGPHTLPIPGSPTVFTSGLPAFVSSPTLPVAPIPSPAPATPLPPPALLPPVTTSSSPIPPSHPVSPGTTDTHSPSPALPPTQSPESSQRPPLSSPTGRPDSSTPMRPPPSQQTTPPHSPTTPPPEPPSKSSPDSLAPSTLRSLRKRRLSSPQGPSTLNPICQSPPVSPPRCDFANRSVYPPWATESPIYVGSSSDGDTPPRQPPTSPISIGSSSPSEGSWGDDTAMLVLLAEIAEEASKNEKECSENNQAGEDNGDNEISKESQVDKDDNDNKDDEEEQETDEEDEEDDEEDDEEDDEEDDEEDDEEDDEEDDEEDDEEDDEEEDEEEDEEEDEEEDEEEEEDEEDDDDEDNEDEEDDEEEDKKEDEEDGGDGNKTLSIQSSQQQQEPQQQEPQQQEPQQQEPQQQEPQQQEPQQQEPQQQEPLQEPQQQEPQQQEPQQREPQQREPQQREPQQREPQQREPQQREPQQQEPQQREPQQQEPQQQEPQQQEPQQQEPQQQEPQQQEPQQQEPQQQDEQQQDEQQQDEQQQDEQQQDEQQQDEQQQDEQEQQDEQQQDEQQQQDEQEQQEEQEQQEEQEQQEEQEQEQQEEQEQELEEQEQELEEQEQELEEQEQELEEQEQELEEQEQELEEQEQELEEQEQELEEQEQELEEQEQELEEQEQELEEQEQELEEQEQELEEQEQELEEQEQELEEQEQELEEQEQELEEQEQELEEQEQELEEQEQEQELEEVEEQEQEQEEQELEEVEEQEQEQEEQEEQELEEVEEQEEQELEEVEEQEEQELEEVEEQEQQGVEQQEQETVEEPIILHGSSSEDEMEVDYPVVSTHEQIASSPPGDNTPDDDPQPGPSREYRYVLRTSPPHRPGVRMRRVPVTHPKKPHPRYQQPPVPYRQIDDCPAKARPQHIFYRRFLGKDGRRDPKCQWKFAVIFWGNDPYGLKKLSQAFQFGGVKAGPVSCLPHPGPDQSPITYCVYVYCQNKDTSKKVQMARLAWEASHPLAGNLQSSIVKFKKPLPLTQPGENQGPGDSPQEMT

[16] = test system: BJ; assay: BJ-TERT-LT-ST fibroblast viability loss – cell-based, RAS-independent, luminescence, dose response (AID 1935); format: functional; conditions: Homo sapiens;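 further: BJ fibroblasts immortalized with TERT plus LT and ST oncogenes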
[17] = molecular target: Keap1/Nrf2 (Homo sapiens, UniProt Q14145); assay: disruptors of Keap1 binding to Nrf2 peptide – biochemical, fluorescence polarization, cherry-picked samples, dose response (AID 588683)
Chain of Keap1/Nrf2 (Q16236 whole entry): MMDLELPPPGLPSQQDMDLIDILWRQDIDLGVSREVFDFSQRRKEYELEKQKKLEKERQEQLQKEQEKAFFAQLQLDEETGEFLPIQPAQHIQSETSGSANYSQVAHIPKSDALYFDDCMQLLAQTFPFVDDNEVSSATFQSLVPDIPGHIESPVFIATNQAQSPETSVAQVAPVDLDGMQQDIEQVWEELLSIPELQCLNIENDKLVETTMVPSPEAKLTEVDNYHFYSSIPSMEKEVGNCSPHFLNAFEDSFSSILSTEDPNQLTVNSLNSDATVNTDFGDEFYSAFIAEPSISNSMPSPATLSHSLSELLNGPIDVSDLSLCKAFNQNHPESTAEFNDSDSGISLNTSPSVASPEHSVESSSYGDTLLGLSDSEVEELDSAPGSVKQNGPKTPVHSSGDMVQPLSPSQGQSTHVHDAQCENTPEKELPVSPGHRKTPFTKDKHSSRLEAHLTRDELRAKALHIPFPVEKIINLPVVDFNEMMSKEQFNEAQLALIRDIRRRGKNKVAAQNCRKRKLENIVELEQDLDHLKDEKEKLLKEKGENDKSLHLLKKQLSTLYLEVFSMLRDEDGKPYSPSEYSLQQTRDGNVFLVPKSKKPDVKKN
Chain of Keap1/Nrf2 (Q14145 whole entry): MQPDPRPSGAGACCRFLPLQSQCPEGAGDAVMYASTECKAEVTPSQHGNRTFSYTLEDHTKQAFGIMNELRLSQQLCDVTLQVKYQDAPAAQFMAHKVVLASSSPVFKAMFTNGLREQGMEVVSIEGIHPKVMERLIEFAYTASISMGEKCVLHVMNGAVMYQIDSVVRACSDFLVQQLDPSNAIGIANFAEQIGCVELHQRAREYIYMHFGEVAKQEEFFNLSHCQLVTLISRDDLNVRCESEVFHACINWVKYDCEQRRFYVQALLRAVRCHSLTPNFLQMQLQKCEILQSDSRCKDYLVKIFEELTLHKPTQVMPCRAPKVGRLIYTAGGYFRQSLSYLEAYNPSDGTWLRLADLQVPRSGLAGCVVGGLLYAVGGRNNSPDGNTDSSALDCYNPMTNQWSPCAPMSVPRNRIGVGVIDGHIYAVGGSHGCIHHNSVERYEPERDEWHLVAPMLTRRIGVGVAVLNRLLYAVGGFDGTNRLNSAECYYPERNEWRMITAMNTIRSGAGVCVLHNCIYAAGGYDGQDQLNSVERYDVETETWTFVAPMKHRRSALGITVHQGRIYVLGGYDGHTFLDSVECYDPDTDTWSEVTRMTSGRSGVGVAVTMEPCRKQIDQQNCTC

Chain of Peroxisome proliferator-activated receptor gamma/Nuclear receptor coactivator 2 (P37231 whole entry): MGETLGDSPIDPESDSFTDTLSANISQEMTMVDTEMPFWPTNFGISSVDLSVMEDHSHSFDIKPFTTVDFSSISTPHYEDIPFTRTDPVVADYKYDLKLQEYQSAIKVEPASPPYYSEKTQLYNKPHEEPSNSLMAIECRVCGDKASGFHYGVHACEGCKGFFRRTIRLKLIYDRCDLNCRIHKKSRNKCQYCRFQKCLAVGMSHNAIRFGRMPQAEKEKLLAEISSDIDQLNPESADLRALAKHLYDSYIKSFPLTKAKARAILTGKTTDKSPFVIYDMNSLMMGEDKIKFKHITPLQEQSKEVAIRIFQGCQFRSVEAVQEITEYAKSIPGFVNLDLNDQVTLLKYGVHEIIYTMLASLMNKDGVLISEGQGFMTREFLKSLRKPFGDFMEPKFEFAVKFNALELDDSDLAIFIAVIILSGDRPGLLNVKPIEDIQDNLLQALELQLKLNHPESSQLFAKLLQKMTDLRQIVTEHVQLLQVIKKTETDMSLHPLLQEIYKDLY
Chain of Peroxisome proliferator-activated receptor gamma/Nuclear receptor coactivator 2 (Q15596 whole entry, further chain): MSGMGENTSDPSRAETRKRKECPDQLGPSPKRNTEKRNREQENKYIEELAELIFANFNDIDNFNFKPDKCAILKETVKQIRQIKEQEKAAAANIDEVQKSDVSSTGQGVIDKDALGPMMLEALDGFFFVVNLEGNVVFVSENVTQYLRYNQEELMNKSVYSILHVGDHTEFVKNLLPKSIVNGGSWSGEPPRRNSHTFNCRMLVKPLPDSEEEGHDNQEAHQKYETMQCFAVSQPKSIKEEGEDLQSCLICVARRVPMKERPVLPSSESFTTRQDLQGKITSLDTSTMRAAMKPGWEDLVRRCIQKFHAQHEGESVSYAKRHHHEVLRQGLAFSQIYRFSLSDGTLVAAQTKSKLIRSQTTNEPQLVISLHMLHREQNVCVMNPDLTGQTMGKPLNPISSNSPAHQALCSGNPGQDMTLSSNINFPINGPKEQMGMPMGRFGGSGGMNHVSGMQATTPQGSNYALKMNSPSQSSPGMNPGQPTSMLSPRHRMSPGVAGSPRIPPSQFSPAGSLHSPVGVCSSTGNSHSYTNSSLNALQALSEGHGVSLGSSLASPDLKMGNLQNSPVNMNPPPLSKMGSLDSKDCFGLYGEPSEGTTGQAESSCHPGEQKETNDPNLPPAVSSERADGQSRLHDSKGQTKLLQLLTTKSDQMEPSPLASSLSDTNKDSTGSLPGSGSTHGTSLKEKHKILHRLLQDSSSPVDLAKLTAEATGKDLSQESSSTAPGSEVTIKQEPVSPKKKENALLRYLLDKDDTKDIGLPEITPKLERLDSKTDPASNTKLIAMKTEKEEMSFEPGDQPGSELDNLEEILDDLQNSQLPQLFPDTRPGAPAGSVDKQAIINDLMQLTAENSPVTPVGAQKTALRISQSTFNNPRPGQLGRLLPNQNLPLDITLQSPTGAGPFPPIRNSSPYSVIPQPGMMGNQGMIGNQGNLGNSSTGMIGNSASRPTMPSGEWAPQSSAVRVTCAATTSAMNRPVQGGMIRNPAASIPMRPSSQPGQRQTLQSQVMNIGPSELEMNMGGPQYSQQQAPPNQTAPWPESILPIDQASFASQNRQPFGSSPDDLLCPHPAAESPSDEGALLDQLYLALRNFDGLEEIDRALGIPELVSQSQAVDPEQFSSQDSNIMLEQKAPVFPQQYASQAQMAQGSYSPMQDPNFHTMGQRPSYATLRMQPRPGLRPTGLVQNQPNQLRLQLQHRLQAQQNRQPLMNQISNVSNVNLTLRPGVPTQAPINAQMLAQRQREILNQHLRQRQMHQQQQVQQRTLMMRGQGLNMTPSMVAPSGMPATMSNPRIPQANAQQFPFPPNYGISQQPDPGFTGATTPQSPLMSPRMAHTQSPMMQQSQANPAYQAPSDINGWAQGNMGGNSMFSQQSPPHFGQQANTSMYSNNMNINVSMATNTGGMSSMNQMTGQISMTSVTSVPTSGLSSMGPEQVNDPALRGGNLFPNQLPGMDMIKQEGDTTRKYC
Chain of Beta-2 adrenergic receptor (P07550 whole entry): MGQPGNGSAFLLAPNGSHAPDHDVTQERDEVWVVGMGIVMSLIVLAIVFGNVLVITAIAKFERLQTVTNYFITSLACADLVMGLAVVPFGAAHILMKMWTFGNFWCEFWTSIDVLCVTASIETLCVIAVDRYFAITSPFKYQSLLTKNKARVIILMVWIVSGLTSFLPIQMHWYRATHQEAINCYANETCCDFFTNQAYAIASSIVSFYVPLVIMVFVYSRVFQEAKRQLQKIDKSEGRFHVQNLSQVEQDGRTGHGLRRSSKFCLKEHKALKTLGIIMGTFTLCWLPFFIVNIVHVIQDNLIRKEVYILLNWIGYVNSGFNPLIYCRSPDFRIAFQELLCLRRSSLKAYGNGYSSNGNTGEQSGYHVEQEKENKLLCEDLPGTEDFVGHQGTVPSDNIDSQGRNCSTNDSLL
Chain of Protein S100-A4 (P26447 whole entry): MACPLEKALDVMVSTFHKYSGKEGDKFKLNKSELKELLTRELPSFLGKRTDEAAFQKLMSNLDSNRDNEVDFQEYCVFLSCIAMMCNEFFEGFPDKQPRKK

## CN(C)C1(CNC(=O)c2ccc(Cl)c(S(N)(=O)=O)c2)CCCCC1
[1]
  AC50: 9.29 µM (inactive)
[2]
  AC50: 20.8 µM (inactive)

## Cc1cc(C)n(-c2nc(SCC(=O)Nc3nccs3)c3c4c(sc3n2)COC(C)(C)C4)n1
[3]
  EC50: > 79.4 µM (not active)
[4]
  EC50: > 79.4 µM (not active)
[5]
  EC50: > 79.4 µM (not active)
[6]
  EC50: 8.85 µM (inactive)

## CN1CCN(c2ccc([N+](=O)[O-])c3no[n+]([O-])c23)CC1
[7]
  EC50: > 380 µM (inactive)
[8]
  AC50: 1.83 µM (active)
[9]
  EC50: 0.793 µM (active)
[10]
  EC50: 5.89 µM (active)
[11]
  EC50: 2.37 µM (inconclusive)
[12]
  AC50: 3.3 µM (active)
[13]
  AC50: 2.57 µM (active)
[14]
  AC50: > 380 µM (inactive)
[15]
  AC50: 12.6 µM (active)
[16]
  EC50: 1.13 µM (inconclusive)
[17]
  AC50: > 52 µM (inactive)
